Data from patent US20240118263A1, “TARGET FOR SCREENING ANTI-TUMOR DRUG, USE THEREOF AND SCREENING METHOD THEREFOR” (SHENYANG FUYANG PHARMACEUTICAL TECHNOLOGY CO., LTD., priority 2019, published 2024).

Experiments:
LN229 and U251 cells = experiment: Annexin V apoptosis flow cytometry, glioblastoma cells; type: cell-based
Description: Cell apoptosis and cell cycle: Cells (2×10^5) were plated in 6-well plates and treated with different concentrations of ISP I. Then the cells were harvested and washed three times with PBS. Cells were resuspended in 100 μl binding buffer and were incubated with 5 μl APC-conjugated Annexin V working solution, a product of BD bioscience (Franklin Lakes, NJ USA), and 1 μl propidium iodide (PI), a product of Invitrogen, for 15 min at room temperature with protection from light. Data acquisition and quantification were processed with BD LSRFortessa flow cytometer, using FlowJo software (Ashland, OR USA).

SELH = SELH (Homo sapiens (Human), UniProt Q8IZQ5); experiment: Drug affinity responsive target stability (DARTS) assay in LN229 cells; type: binding; details: LN229 lysate, ISP I 40 μg/mL, mass spectroscopy
Description: (2) To identify ISP I's molecular target, the inventors performed drug affinity responsive target stability (DARTS) assay in LN229 cells.
The inventors discovered that the binding of ISP I to its target proteins temporarily locks them into a stable conformational structure, which prevents their recognition by proteases. After evading protease degradation, the identity of ISP I's target proteins was determined using mass spectroscopy.
DARTS assay data were taken to identify the target of ISP I in vitro. For this assay, the invenots used the protocol published by Lomenick et al., Proc. Nat'l Acad. Sci. USA 106: 21984 (2009). Briefly, LN229 cells were lysed with M-PER (Pierce) supplemented with protease and phosphatase inhibitors. After centrifugation at 14,000 rpm for 15 min, lysates were diluted to the same final volume and protein concentration with M-PER and were dissolved in TNC buffer [50 mM Tris-HCl (pH 8.0), 50 mM NaCl, 10 mM CaCl2]. All steps were performed on ice or at 4° C. to help prevent premature protein degradation. […] Peptides were analyzed by LC/MS/MS on a Thermo LTQ-Orbitrap mass spectrometer with an Eksigent LC pump. For quantitative comparison of protein and peptide abundances, MS spectra were analyzed by means of the differential workflow of Rosetta Elucidator (Rosetta Inpharmatics).

[1] = tested on: SELH-deficient LN229 cells and RCC cells (786-O and RCC4); experiment: CCK8 assay in SELH-deficient (CRISPR/CAS9) cells; type: cell-based; details: CCK8, compared to wild-type cells
Description: SELH knockout LN229 cell lines and B16 were generated using the CRISPR/Cas9 technique described by Shalem et al., Science 343: 84 (2014). The gDNA for targeting SELH was designed as follows: Oligo 1, 5′-[…]-3′; Oligo 2, 5′-[…]-3′; the gDNA for targeting mouse SELH was designed as follows: Oligo 1, 5′-[…]-3′; Oligo 2, 5′-[…]-3′, and subcloned into Cas9 carrying vector (pX330). The two resultant plasmids and puromycin-expressing vector (pPGK-puro) were co-transfected at a ratio of 1:1:1 into LN229 or B16 cells using Lipofectamine 2000 (Invitrogen). Twenty-four hours later, the transfected cells were subjected to puromycin (Sigma) at 1 μg/mL for 7 days. One week after selection, the surviving clones were expanded, followed by extraction of total protein for standard western blotting analysis.

786-O xenograft = experiment: 786-O subcutaneous xenograft model; type: in vivo, NSG mice; details: 35 mg/kg intraperitoneally daily, vs control
Description: For subcutaneous xenografts, NSG mice (6-8 weeks old) from the NCI-Frederick animal facility and Jackson Lab (Bar Harbor, ME USA) were injected with 5×10^6 to 1×10^7 cells subcutaneously in the flank. One week later, the tumor-bearing mice were randomly assigned to different groups and made the tumor volume baseline equivalent and treated with normal saline or Zenomycin (35 mg/kg) everyday intraperitoneally. Tumors were measured using a caliper, and volume was calculated.

Sequence of SELH (Q8IZQ5 whole entry): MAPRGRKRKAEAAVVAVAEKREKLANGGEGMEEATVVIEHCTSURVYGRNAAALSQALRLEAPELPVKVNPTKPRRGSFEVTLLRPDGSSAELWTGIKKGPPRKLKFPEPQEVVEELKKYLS

CO[C@@H]1[C@@H](O[C@@H]2O[C@H](C)[C@@H](O[C@H]3C[C@@](C)(O)[C@@H](OC(=O)CC(C)C)[C@H](C)O3)[C@H](N(C)C)[C@H]2O)[C@@H](CC=O)C[C@@H](C)[C@@H](O[C@H]2CC[C@H](N(C)C)[C@@H](C)O2)/C=C/C=C/C[C@@H](C)OC(=O)C[C@H]1O [Isovalerylspiramycin I, 4″-isovalerylspiramycin I] was tested, and the “apoptosis (Annexin V stain)” value (LN229 and U251 cells) was “dose-dependent apoptosis”, the “target protein identified by DARTS” value (SELH) was “SELH was the most abundant primary protein” and the “response of SELH-deficient cells to treatment” value [1] was “SELH-deficient cells were resistant to ISP I treatment”. The “tumor size and weight, 786-O xenograft” value (786-O xenograft) was “significantly reduced tumor size and weight”.
